Data on 1 compound can be found in ChEMBL document CHEMBL5230089, “Small-Molecule Fms-like Tyrosine Kinase 3 Inhibitors: An Attractive and Efficient Method for the Treatment of Acute Myeloid Leukemia” (J Med Chem, 2020).

The IC50 is the concentration needed to halve the response being measured.

Each structure is given as a SMILES string.

For assay [1], the target named is Receptor-type tyrosine-protein kinase FLT3 (Homo sapiens, UniProt P36888, ITD).
Another assay deals with MV4-11. Put plainly: Antiproliferative activity against human MV4-11 cells assessed as cell growth inhibition measured after 48 hrs by cell titer glo assay. The format is functional, cell-based. The conditions noted are these: MV4-11, 48 h. In general terms: In ATP-based viability assays light output follows the ATP content of the culture.

Sequence of Receptor-type tyrosine-protein kinase FLT3 (P36888 whole entry, looked up, stated change not applied): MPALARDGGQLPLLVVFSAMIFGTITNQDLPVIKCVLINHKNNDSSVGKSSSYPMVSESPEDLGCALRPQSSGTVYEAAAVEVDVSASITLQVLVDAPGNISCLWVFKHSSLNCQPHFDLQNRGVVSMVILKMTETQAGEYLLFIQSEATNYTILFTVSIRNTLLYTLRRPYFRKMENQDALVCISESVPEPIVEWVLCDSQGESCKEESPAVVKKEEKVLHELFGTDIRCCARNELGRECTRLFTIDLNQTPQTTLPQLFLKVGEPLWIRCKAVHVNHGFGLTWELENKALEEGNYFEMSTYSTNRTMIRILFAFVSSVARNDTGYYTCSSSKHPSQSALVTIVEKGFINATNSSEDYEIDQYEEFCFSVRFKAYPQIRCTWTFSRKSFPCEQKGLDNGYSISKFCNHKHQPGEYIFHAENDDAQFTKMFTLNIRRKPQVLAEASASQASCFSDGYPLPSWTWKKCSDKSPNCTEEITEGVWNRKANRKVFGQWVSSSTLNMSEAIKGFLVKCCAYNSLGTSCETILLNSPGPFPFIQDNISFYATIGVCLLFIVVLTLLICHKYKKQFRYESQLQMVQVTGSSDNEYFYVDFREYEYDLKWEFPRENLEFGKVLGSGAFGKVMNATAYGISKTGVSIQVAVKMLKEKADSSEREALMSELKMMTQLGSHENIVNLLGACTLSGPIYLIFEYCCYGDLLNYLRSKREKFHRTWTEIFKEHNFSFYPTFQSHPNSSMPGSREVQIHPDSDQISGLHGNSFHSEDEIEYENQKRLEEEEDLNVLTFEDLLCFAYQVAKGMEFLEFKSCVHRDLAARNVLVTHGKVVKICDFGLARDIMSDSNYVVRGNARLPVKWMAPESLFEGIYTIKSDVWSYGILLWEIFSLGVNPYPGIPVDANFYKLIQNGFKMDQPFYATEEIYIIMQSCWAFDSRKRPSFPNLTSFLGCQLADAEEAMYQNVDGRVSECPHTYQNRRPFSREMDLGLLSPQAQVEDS

Turning to `COc1cc(Nc2nc3cccc(-c4cccc(C(N)=O)c4)c3o2)ccc1N1CCNCC1`, the IC50 in assay [1] stood at 0.41 nM; with MV4-11, 37 nM.
